From US4640922A, “3N-substituted 3,4-dihydropyrimidines as agents for treating disorders of cardiovascular system” (Suntory Limited, priority 1984, dated 1987)
Read-outs that look alike come from different tables or passages of the source.

Columns and labels:
[1] = test system: coronary artery (isolated heart); test: Coronary vascular dilative effect, isolated perfused guinea pig heart, Langendorff's method (perfusion pressure); conditions: for Pharmacological data ED50: 0.1 ml injected into coronary artery, isolated guinea pig heart, 37° C., 6 ml/minute
Procedure: The coronary vascular dilative effect of 3N-substituted 3,4-dihydropryrimidine derivatives was tested.
Heartly guinea pigs (weight 400-500 g) were clubbed dead and their hearts were immediately isolated. The hearts were perfused with Krebs-Henseleit solution bubbled with a mixture of 95% O2 +5% CO2 and maintained at 37° C. at a certain rate of 6 ml/minute according to Langendorff's method [J. Pharmacol. Methods 2, 143 (1979)]. The perfusion pressure was determined by a pressure transducer. Samples were prepared by dissolving 1 mg of a test compound in 1 ml of a mixture of dimethylsulfoxide and physiological saline (1:9) and diluting with physiological saline the solution to the predetermined concentration. 0.1 ml of the diluted solution was administered into the coronary artery via a rubber tube connected to an aorta cannula to obtain ED50 (μg/heart) data as shown in Table 1. The numbers of the compounds in the Table correspond respectively to those of the working examples described above.

vertebral artery = test: Blood flow and blood vessel resistance of vertebral artery in anesthetized dogs; format: in vivo, dog; conditions: Canis lupus familiaris, iv, % of value before administration, average ± standard error
Procedure: (§1) The pharmacological effects of the compounds of the present invention with respect to the blood flow and blood vessel resistance of vertebral artery and systemic blood pressure (average pressure) in anesthetized dogs. […] The first and second ribs were cut open to expose the left vertebral artery. A probe was attached to the origin of the artery and the blood flow was measured with an electromagnetic rheometer (Model MF-27, product of Nihon Koden K.K.) At the same time, continuous measurement of the following parameters was made: systemic blood pressure (average pressure) at the right femoral artery, the ECG in the second induction period, the heart beat with a tachometer driven by the R wave, and the blood vessel resistance determined by loading a multiplication/division unit (EO-601 G, product of Nihon Koden K.K.) with the average values of blood pressure and blood flow in the vertebral artery. All of these parameters were recorded simultaneously on a polygraph (RM-600, product of Nihon Koden, K.K.) All of the test compounds were injected through a cannula inserted into the femoral […].

systemic blood pressure = test: Systemic blood pressure (average pressure) in anesthetized dogs; format: in vivo, dog; conditions: Canis lupus familiaris, iv, % of value before administration, average ± standard error, read-out: Average blood pressure, percentage compared with control
Procedure: as §1

[2] = read-out: Vertebral artery blood flow, percentage compared with control
[3] = read-out: Vertebral artery vessel resistance, percentage compared with control

Structure (SMILES) | Pharmacological data ED50 [1] | response vs control in vivo at 0.001 mg/kg (vertebral artery; [2]) | response vs control in vivo at 0.001 mg/kg (vertebral artery; [3]) | response vs control in vivo at 0.003 mg/kg (vertebral artery; [2]) | response vs control in vivo at 0.003 mg/kg (vertebral artery; [3]) | response vs control in vivo at 0.01 mg/kg (vertebral artery; [2]) | response vs control in vivo at 0.01 mg/kg (vertebral artery; [3]) | response vs control in vivo at 0.03 mg/kg (vertebral artery; [2]) | response vs control in vivo at 0.03 mg/kg (vertebral artery; [3]) | response vs control in vivo at 0.1 mg/kg (vertebral artery; [2]) | response vs control in vivo at 0.1 mg/kg (vertebral artery; [3]) | response vs control in vivo at 0.001 mg/kg (systemic blood pressure) | response vs control in vivo at 0.003 mg/kg (systemic blood pressure) | response vs control in vivo at 0.01 mg/kg (systemic blood pressure) | response vs control in vivo at 0.03 mg/kg (systemic blood pressure) | response vs control in vivo at 0.1 mg/kg (systemic blood pressure) | also measured
COC(=O)C1=C(C)N=C(C)N(C(=O)OC)C1c1ccccc1[N+](=O)[O-] (stereo not drawn) [Compound 10] | 0.75 μg/heart | 102% | 99% | 108% | 94% | 113% | 86% | 140% | 67% | 146% | 58% | 92% | 91% | 86% | 78% | 63% | 
CCOC(=O)C1=C(C)N=C(C)N(C(=O)OCC)C1c1cccc([N+](=O)[O-])c1 (stereo not drawn) [Compound 12] | 1.9 μg/heart |  |  | 129 ± 11% | 86 ± 2% | 148 ± 3% | 73 ± 3% | 163 ± 7% | 62 ± 4% | 200 ± 6% | 47 ± 5% |  | 93 ± 0.3% | 86 ± 1% | 84 ± 3% | 77 ± 2% | 
CCOC(=O)C1=C(Cl)N=C(C)N(C(=O)OCC)C1c1cccc([N+](=O)[O-])c1 (stereo not drawn) [Compound 13] | 0.48 μg/heart |  |  | 108% | 89% | 126% | 81% | 128% | 73% | 158% | 54% |  | 94% | 92% | 88% | 78% | response vs control in vivo at 0.3 mg/kg (vertebral artery; [2]): 179%; response vs control in vivo at 0.3 mg/kg (vertebral artery; [3]): 46%; response vs control in vivo at 1 mg/kg (vertebral artery; [2]): 216%; response vs control in vivo at 1 mg/kg (vertebral artery; [3]): 41%; response vs control in vivo at 0.3 mg/kg (systemic blood pressure; 0.3 mg/kg): 78%; response vs control in vivo at 1 mg/kg (systemic blood pressure; 1.0 mg/kg): 77%
COC(=O)C1=C(C)N=C(C)N(C(=O)OC)C1c1cccc([N+](=O)[O-])c1 (stereo not drawn) [Compound 17] | 2.5 μg/heart | 100% | 97% | 106% | 95% | 108% | 89% | 129% | 77% | 148% | 67% | 95% | 90% | 89% | 86% | 74% | 
CCOC(=O)C1=C(C)N=C(C)N(C(=O)OCC)C1c1ccccc1Cl (stereo not drawn) [Compound 22] | 0.086 μg/heart | 105% | 96% | 119% | 80% | 136% | 65% | 188% | 49% | 229% | 39% | 94% | 89% | 82% | 85% | 79% | coronary vascular dilative effects (in words) ([1]; Langendorff's method, guinea pig heart): extremely strong coronary vascular dilative effects
